# Results as given in patent US8604053B2, “TRPV1 antagonists” (AbbVie Inc., priority 2008, dated 2013).
# Columns and labels:
# [1] = Rat telemetry protocol, core body temperature; type: in vivo; conditions: core body temperature of rats one hour post dosing, 100 μmol/kg p.o., relative to vehicle
# Method in brief: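 Male Sprague Dawley rats (225–250 g) with intraperitoneal telemetry transmitters, 2-week recovery. Single oral 100 μmol/kg dose in 10% EtOH/20% Tween-80/70% PEG-400; core body temperature recorded every 15 min over 24 h.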
# [2] = Assessment of hemodynamic profile in anesthetized rat; type: in vivo; conditions: i.v. infusion 3, 10 and 30 mg/kg/30 minutes/dose, relative to vehicle control group
# Experimental: Male Sprague-Dawley rats were anesthetized with Inactin, instrumented, and allowed to stabilize. Following a 30 minute baseline period, test compound was infused via intravenous administration at 3, 10, and 30 mg/kg/30 minutes/dose in a low volume PEG-400 vehicle (1 mL/kg) or 20:40:40 dimethylacetamide:propylene glycol:PEG-400 vehicle (1 mL/kg). A separate group of animals received infusion of vehicle alone. Mean arterial pressure (MAP) and heart rate (HR) were observed and recorded.
# [3] = target: T1, human TRPV1 receptor (hTRPV1) (Homo sapiens, UniProt Q8NER1); test: Capsaicin activation assay (Ca2+ influx, FLIPR); type: cell-based; conditions: hTRPV1 in 1321N1 cells, 0.05 μM capsaicin
# T1 construct: expressed in transfected cells
# T1 sequence (Q8NER1 whole entry): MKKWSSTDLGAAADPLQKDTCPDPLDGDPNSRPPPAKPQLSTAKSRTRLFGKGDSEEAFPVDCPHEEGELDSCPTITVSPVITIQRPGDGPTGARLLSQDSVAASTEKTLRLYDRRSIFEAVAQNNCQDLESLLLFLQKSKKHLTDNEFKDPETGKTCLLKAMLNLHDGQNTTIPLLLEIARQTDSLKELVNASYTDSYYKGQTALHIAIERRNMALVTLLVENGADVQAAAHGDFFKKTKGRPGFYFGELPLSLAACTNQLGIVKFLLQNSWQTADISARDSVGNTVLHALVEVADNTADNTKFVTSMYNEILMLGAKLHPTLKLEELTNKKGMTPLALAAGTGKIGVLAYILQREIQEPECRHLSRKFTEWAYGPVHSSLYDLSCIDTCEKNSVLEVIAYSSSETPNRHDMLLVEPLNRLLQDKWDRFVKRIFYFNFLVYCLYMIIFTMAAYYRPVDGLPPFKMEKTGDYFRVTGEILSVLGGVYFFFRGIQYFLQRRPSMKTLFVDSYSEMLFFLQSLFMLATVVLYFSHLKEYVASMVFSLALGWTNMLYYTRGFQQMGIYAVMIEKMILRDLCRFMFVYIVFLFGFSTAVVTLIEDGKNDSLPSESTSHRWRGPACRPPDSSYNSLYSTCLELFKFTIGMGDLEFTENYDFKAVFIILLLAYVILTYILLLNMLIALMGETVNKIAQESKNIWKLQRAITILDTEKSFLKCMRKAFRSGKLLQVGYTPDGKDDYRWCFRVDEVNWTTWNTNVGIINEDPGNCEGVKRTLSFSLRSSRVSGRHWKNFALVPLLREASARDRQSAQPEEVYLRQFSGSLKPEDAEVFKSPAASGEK
# Method in brief: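 1321N1 astrocytoma cells stably expressing recombinant hTRPV1, loaded with Fluo-4 AM (2 μM, 1-2 h, 23 °C); compounds added 3 min before capsaicin (0.05 μM final), 11-point half-log range. Peak FLIPR fluorescence over baseline as % of capsaicin control; IC50 from four-parameter Hill fit.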
Compound,Δ Temp (° C.) [1],Change in MAP or HR ≧ 15% ? [2],IC50 [3]
"Cc1cc2c(NC(=O)N[C@@H]3CC(CF)(CF)Oc4cc(F)ccc43)cccc2cn1 [Example 96, N-[(4R)-7-fluoro-2,2-bis(fluoromethyl)-3,4-dihydro-2H-chromen-4-yl]-N′-(3-methylisoquinolin-5-yl)urea]",0.0 °C,Yes (An observed increase or decrease of greater than 15% in MAP (mean arterial pressure) or HR (heart rate) in one or more of the animals in the test group relative to the vehicle control group is indicated as “Yes” in the table),15 nM
"N-[(4R)-6,8-difluoro-2,2-dimethyl-3,4-dihydro-2H-chromen-4-yl]-N-(3-methylisoquinolin-5-yl)urea [Example 98]",0.0 °C,Yes (An observed increase or decrease of greater than 15% in MAP (mean arterial pressure) or HR (heart rate) in one or more of the animals in the test group relative to the vehicle control group is indicated as “Yes” in the table),17 nM
"Cc1cc2c(NC(=O)N[C@@H]3CC(CF)(CF)Oc4cc(Cl)ccc43)cccc2cn1 [Example 84, N-[(4R)-7-chloro-2,2-bis(fluoromethyl)-3,4-dihydro-2H-chromen-4-yl]-N′-(3-methylisoquinolin-5-yl)urea]",0.0 °C,No (an observed increase or decrease of less than or equal to 15% in MAP (mean arterial pressure) or HR (heart rate) in the test group of animals relative to the vehicle control group is indicated as “No” in the table),11 nM
"Cc1cc2c(NC(=O)N[C@@H]3C[C@@](C)(C(F)F)Oc4cc(Cl)ccc43)cccc2cn1 (single isomer, unassigned) [Example 124]",0.0 °C,No (an observed increase or decrease of less than or equal to 15% in MAP (mean arterial pressure) or HR (heart rate) in the test group of animals relative to the vehicle control group is indicated as “No” in the table),6 nM
"CC1(C)C[C@@H](NC(=O)Nc2cccc3cnccc23)c2cc(F)ccc2O1 [Example 5, N-[(4R)-6-fluoro-2,2-dimethyl-3,4-dihydro-2H-chromen-4-yl]-N′-isoquinolin-5-ylurea]",−0.2 °C,Yes (An observed increase or decrease of greater than 15% in MAP (mean arterial pressure) or HR (heart rate) in one or more of the animals in the test group relative to the vehicle control group is indicated as “Yes” in the table),23 nM
